{"source": "paper PMC2746040", "about": "(Synapse (New York, N.Y.), 2009)", "key": {"D2L-YFP": {"tested_on": "D2L-YFP", "experiment": "Agonist-induced receptor internalization assessed via confocal microscopy", "type": "cell-based", "settings": "15 min, room temperature, 50 nM MNPA or 10 μM dopamine"}, "D3 DAR [1]": {"target": "T1, D3 DAR (Rattus norvegicus, UniProt P19020)", "T1 sequence (P19020 whole entry)": "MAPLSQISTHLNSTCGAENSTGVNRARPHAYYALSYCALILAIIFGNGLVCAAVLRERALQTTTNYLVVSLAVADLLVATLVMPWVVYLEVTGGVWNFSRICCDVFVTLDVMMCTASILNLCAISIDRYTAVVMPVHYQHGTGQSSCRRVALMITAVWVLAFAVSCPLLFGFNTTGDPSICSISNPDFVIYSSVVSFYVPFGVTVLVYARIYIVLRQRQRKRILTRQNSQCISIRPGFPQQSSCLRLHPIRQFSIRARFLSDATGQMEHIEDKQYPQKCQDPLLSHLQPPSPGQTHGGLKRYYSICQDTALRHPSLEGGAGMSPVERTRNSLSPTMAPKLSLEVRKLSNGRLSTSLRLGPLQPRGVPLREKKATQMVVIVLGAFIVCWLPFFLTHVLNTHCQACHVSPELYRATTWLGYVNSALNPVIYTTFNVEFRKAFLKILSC", "type": "binding", "settings": "read-out: KiL"}, "D2L DAR [2]": {"target": "T2, D2L DAR (Rattus norvegicus, UniProt P61169)", "T2 sequence (P61169 whole entry)": "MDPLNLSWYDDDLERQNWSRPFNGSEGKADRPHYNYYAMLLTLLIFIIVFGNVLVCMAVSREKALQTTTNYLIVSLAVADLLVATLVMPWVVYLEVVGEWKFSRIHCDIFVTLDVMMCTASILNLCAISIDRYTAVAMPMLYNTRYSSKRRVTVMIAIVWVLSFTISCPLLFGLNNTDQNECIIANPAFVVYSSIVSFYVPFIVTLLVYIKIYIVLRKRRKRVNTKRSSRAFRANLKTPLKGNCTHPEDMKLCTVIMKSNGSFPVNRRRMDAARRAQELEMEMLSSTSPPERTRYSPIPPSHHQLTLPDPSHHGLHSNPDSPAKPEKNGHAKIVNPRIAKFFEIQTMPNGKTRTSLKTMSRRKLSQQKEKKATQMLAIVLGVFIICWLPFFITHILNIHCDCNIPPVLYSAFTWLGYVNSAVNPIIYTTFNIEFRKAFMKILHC", "type": "cell-based", "settings": "for % Maximum inhibition: 3 μM forskolin-stimulated cAMP accumulation, 10 min 37°C, HEK293T"}, "D3 DAR [3]": {"target": "T1, D3 DAR", "type": "cell-based"}, "D2L DAR [4]": {"target": "T2, D2L DAR", "type": "binding"}, "D2L DAR [5]": {"target": "T2, D2L DAR", "type": "binding", "settings": "intact cells; for hill coefficient: [3H]sulpiride competition"}, "D2L DAR [6]": {"target": "T2, D2L DAR", "type": "binding", "settings": "for % decrease of Bmax: by Gpp(NH)p 100 μM"}, "D2L DAR [7]": {"target": "T2, D2L DAR", "type": "cell-based", "settings": "50 nM MNPA or 10 μM dopamine"}}, "note": "“And” between values parts separate entries of the source, which are not always exact repeats. Identical values can stand only once. Like-named read-outs stand apart in the source and are kept apart here.", "data": [{"compound": "NCCc1ccc(O)c(O)c1", "note": "[Dopamine, dopamine, reference compound]", "values": [{"measurement": "internalization of the D2-YFP receptor (confocal images)", "setting": "D2L-YFP", "result": "some of the D2-YFP fluorescence is apparent in punctuated, vesicle-like structures in the cytosol"}]}, {"compound": "CCCN1CCc2cc(OC)cc3c2[C@H]1Cc1ccc(O)c(O)c1-3", "note": "[MNPA, (R)-2-^11CH3O-N-n-propylnorapomorphine]", "values": [{"measurement": "Ki", "setting": "D3 DAR [1]; + GTP 100 μM (dopamine: one-site fit)", "result": "1.09 ± 1.7", "unit": "nM"}, {"measurement": "Ki", "setting": "D3 DAR [1]; absence of GTP (dopamine: one-site fit)", "result": "1.02 ± 0.2", "unit": "nM"}, {"measurement": "IC50", "setting": "D2L DAR [2]; inhibition of forskolin-stimulated cAMP accumulation, no antagonist", "result": "0.33 ± 0.26", "unit": "nM"}, {"measurement": "IC50", "setting": "D3 DAR [3]; 3 μM forskolin, D3 DAR + AC-V, no antagonist", "result": 3.43, "unit": "nM"}, {"measurement": "EC50", "setting": "D3 DAR [3]; read-out: EC50 value for inhibiting D3 DAR activity", "result": 3.4, "unit": "nM"}, {"measurement": "Ki", "setting": "D2L DAR [4]; read-out: KiH, high affinity state, absence of GTP, [3H]methylspiperone ~0.2 nM", "result": "0.09 ± 0.02", "unit": "nM"}, {"measurement": "Ki", "setting": "D2L DAR [4]; read-out: KiL, + GTP 100 μM, single site", "result": "13.7 ± 3.3", "unit": "nM"}, {"measurement": "Ki", "setting": "D2L DAR [4]; read-out: KiL, low affinity state, absence of GTP", "result": "16.9 ± 3.2", "unit": "nM"}, {"measurement": "Ki", "setting": "D2L DAR [5]; [3H]sulpiride ~2 nM, 1 hour 37°C, single site", "result": "109 ± 52", "unit": "nM"}]}, {"compound": "CCCN1CCc2cc(O[11CH3])cc3c2[C@H]1Cc1ccc(O)c(O)c1-3", "note": "[MNPA, (R)-2-^11CH3O-N-n-propylnorapomorphine]", "values": [{"measurement": "fold increase of Kd by Gpp(NH)p", "setting": "D2L DAR [6]; Gpp(NH)p 100 μM", "result": "~2", "unit": "fold"}, {"measurement": "% decrease of Bmax", "setting": "D2L DAR [6]", "result": "21 ± 9", "unit": "%"}, {"measurement": "% decrease of Bmax", "setting": "D2L DAR [6]; listed as [^3H]MNPA", "result": "17-21%"}, {"measurement": "% decrease of Bmax", "setting": "D2L DAR [7]; Arrestin2 co-transfection", "result": "53 ± 2", "unit": "%"}, {"measurement": "Bmax of [3H]sulpiride after agonist pretreatment", "setting": "D2L DAR [7]; Arrestin2 co-transfection", "result": "3.00 ± 0.33", "unit": "fmol/10^5cells"}, {"measurement": "% decrease of Bmax", "setting": "D2L DAR [7]; Arrestin3 co-transfection", "result": "68 ± 8", "unit": "%"}, {"measurement": "Bmax of [3H]sulpiride after agonist pretreatment", "setting": "D2L DAR [7]; Arrestin3 co-transfection", "result": "2.75 ± 0.27", "unit": "fmol/10^5cells"}, {"measurement": "% decrease of Bmax", "setting": "D2L DAR [7]; pcDNA transfection", "result": "23% and 23 ± 7%"}, {"measurement": "Bmax of [3H]sulpiride after agonist pretreatment", "setting": "D2L DAR [7]; pcDNA transfection", "result": "7.25 ± 0.53", "unit": "fmol/10^5cells"}, {"measurement": "internalization of the D2-YFP receptor (confocal images)", "setting": "D2L-YFP", "result": "promotes internalization of the D2-YFP receptor"}, {"measurement": "% Maximum inhibition", "setting": "D2L DAR [2]", "result": "82 ± 3", "unit": "%"}, {"measurement": "agonist character at the D2L DAR", "setting": "D2L DAR [2]; cAMP accumulation", "result": "potent and full agonist"}, {"measurement": "fold higher EC50 at D3 DAR compared to D2 DAR", "setting": "D3 DAR [3]", "result": "~10", "unit": "fold"}, {"measurement": "fold reduction in potency by (+)-butaclamol", "setting": "D3 DAR [3]; 10 μM (+)butaclamol", "result": 100, "unit": "fold"}, {"measurement": "agonist character at the D3 DAR", "setting": "D3 DAR [3]; cAMP accumulation", "result": "full agonist"}, {"measurement": "potency relative to dopamine at the D3 DAR", "setting": "D3 DAR [3]; cAMP accumulation", "result": "slightly less potent than dopamine"}, {"measurement": "inhibition of forskolin stimulated cAMP accumulation", "setting": "D3 DAR [3]; maximal extent", "result": "42-43%"}, {"measurement": "fold lower Ki values than dopamine", "setting": "D2L DAR [4]", "result": "200-1000 fold"}, {"measurement": "% RH (percentage of receptors configured in the GTP sensitive high-affinity state)", "setting": "D2L DAR [4]; absence of GTP", "result": "24 ± 1", "unit": "%"}, {"measurement": "hill coefficient", "setting": "D2L DAR [5]", "result": "1.7 ± 0.2"}]}, {"compound": "CN1CN(c2ccccc2)C2(CCN(CCCC(=O)c3ccc(F)cc3)CC2)C1=O", "note": "[MSP, methylspiperone, reference compound]", "values": [{"measurement": "effect of Gpp(NH)p on binding", "setting": "D2L DAR [6]; Gpp(NH)p 100 μM", "result": "no effect"}]}, {"compound": "CCCN1CCc2cccc3c2[C@H]1Cc1ccc(O)c(O)c1-3", "note": "[NPA, N-n-propylnorapomorphine, reference compound]", "values": [{"measurement": "% decrease of Bmax", "setting": "D2L DAR [6]", "result": "17 ± 5", "unit": "%"}, {"measurement": "% decrease of Bmax", "setting": "D2L DAR [6]; listed as [^3H]NPA", "result": "17-21%"}, {"measurement": "% Maximum inhibition", "setting": "D2L DAR [2]", "result": "72 ± 8", "unit": "%"}, {"measurement": "% RH (percentage of receptors configured in the GTP sensitive high-affinity state)", "setting": "D2L DAR [4]; absence of GTP", "result": "24 ± 1", "unit": "%"}, {"measurement": "hill coefficient", "setting": "D2L DAR [5]", "result": "1.5 ± 0.2"}]}]}
